Laboratory results reported in US7303915B2, “In vitro-differentiated retinal ganglion cells and method for producing same” (Wisconsin Alumni Research Foundation, priority 2005, dated 2007).
Residues, ends and D or L forms follow the SMILES beside them. *: point of attachment. Cbz = O=C(OCc1ccccc1)*; CH2F = FC*

Key:
[1] = test system: RGC-5 cells; assay: Morphological differentiation and neurite count of RGC-5 cells; conditions: for morphological evidence of differentiation: apoptosis inducer; for rounding of the cell soma: specific kinase inhibitors on RGC-5 cells
Procedure: Cell culture: RGC-5 cells were cultured in Dulbecco's modification of Eagle's medium (DMEM; Mediatech, Inc.; Herndon, Calif.) containing 1 mg/L glucose with L-glutamine, supplemented with 10% FBS, 100 U/ml penicillin and 100 μg/ml streptomycin. Cells were incubated at 37° C. in humidified 5% CO2.
Pharmacological agents were used to induce or to inhibit various signaling pathways within RGC-5 cells. Cells were replated on 12 mm round cover glass in 24 well plates 24 hours prior to pharmacological treatment. Drugs were added for varying lengths of time and then processed for immunocytochemistry.
Cell morphology: Photomicrographs were taken at 400× total magnification with Nomarski optics, digitized as above, and stored as JPEG images. The pictures were then batch analyzed off-line to assess the development of neurites. A total of fifty cells from each condition were analyzed. The fifty cells assessed for neurite outgrowth in each condition were selected to include all cells in each photomicrograph for which the neurite tree was visible, and continuing with a new photomicrograph until fifty cells were analyzed. Projections from the cell were classified as neurites if they were equal or greater in length than the cell soma. Only branches arising from the soma were counted. The neurite counts were expressed as mean±S.E.M.

[2] = target: Rho-Kinase; conditions: cited from earlier work
[3] = test system: PKR T451; assay: Kinetworks KPSS 2.1 phosphorylation screen, PKR T451; format: cell-based, rat; conditions: 1 μM for 5 minutes
Procedure: (§1) Analysis of kinasephosphorylation targets: Total cell lysates were prepared as described in Zhang H, et al., J Biol Chem 276:6905-6908 (2001). Cells were washed with ice-cold PBS, scraped, and centrifuged at 3,200 g for five minutes. The pellets were resuspended in lysis buffer (Kinexus Bioinformatics; Vancouver, BC, Canada) supplemented with 5 mM pepstatin A (Roche; Indianapolis, Ind.), and Complete mini protease inhibitor cocktail (Roche). The suspensions were sonicated on ice for two 15-second bursts, followed by centrifugation at 100,000 g for 30 minutes at 4° C. […] Bradford M M, Anal Biochem 72:248-254 (1976). These were then transferred to nitrocellulose membranes. Using a twenty-lane multiblotter (BioRad; Hercules, Calif.), the membranes were incubated with different mixtures of up to three antibodies per lane that react with a distinct subset of at least thirty-seven known phosphorylated sites of cell signaling proteins of distinct molecular masses. After further incubation with a mixture of relevant HRP conjugated secondary antibodies (Santa Cruz Biotechnology), the blots were developed using ECL Plus reagent (Amersham Pharmacia; Piscataway, N.J.) and signals quantified using Quantity One software (BioRad). Detailed information and protocols of the Kinetworks™ analysis can be found at the Kinexus Bioinformatics Corporations website.

[4] = test system: focal adhesion kinase (FAK) S722; assay: Kinetworks KPSS 2.1 phosphorylation screen, FAK S722; format: cell-based, rat; conditions: 1 μM for 5 minutes
Procedure: (§2) Cells were washed with ice-cold PBS, scraped, and centrifuged at 3,200 g for five minutes. The pellets were resuspended in lysis buffer (Kinexus Bioinformatics; Vancouver, BC, Canada) supplemented with 5 mM pepstatin A (Roche; Indianapolis, Ind.), and Complete mini protease inhibitor cocktail (Roche). The suspensions were sonicated on ice for two 15-second bursts, followed by centrifugation at 100,000 g for 30 minutes at 4° C. […] These were then transferred to nitrocellulose membranes. Using a twenty-lane multiblotter (BioRad; Hercules, Calif.), the membranes were incubated with different mixtures of up to three antibodies per lane that react with a distinct subset of at least thirty-seven known phosphorylated sites of cell signaling proteins of distinct molecular masses. After further incubation with a mixture of relevant HRP conjugated secondary antibodies (Santa Cruz Biotechnology), the blots were developed using ECL Plus reagent (Amersham Pharmacia; Piscataway, N.J.) and signals quantified using Quantity One software (BioRad). Detailed information and protocols of the Kinetworks™ analysis can be found at the Kinexus Bioinformatics Corporations website.

[5] = test system: ERK1 T202/Y204; assay: Kinetworks KPSS 2.1 phosphorylation screen, ERK1 T202/Y204; format: cell-based, rat; conditions: 1 μM for 5 minutes
Procedure: as §1

[6] = test system: Thy-1; assay: Immunoblot analysis of Thy-1 in RGC-5 cells; conditions: 316 nM for three days
Procedure: (§4) After transfer, the membrane was blocked with 5% non-fat milk in TBS (pH 8.0) for 30-60 minutes, and then probed with primary antibodies to RGC marker proteins in blocking buffer. Antibodies used included purified rabbit polyclonal anti-microtubule-associated protein 2 (1:2000; Chemicon; Temecula, Calif.), polyclonal rabbit anti-Thy-1 (1:100; Santa Cruz Biotechnology), and polyclonal rabbit anti-actin (1:1000; Sigma). Blots were rinsed 3 times with TBS containing 0.05% Tween-20 (Fisher Scientific), then washed 5 times for 10 minutes each at room temperature on an orbital shaker. Secondary antibodies used were purified HRP-conjugated goat anti-rabbit IgG and purified HRP-conjugated goat anti-mouse IgG (1:5000; Jackson Immunoresearch Laboratories; West Grove, Pa.), and were incubated for 1 hour at room temperature, followed by 3 rinses and five 10 minute washes with TBS containing Tween-20 at room temperature on an orbital shaker. […] The blots were then exposed to Kodak BioMax XAR film (Eastman Kodak Company; Rochester, N.Y.) and developed. The films were scanned at 1600 dpi and band density was determined by comparing total intensity in an area containing the band of interest to the intensity of an equal size area of background using NIH ImageJ software. Band density readings are presented with respect to the density of the band from the control, untreated cell condition.

[7] = test system: microtubule-associated protein 2 (MAP-2); assay: Immunoblot analysis of MAP-2 in RGC-5 cells; conditions: 316 nM for three days
Procedure: as §4

[8] = test system: RGC-5 cells; assay: Nuclear condensation changes of apoptosis (Hoechst 33258); format: cell-based, rat; conditions: twenty-four hour incubation, Hoechst 33258 10 μg/ml for thirty minutes
[9] = test system: RGC-5 cells; assay: Whole-cell voltage-clamp recording of RGC-5 cells; format: cell-based, rat; conditions: for conductance of outward currents at +90 mV: after leak subtraction
Procedure: No series resistance compensation was used. Currents were low-pass filtered at 1-5 kHz with a four-pole Bessel filter, and digitized at a rate no less than twice the filter frequency. […] Analysis and curve fitting was also performed using AxoGraph.
Voltage-gated currents were studied by applying 10 ms voltage steps from −100 to +90 mV in 10 mV increments, from a holding potential of −60 mV. This protocol was run 2-6 times on each cell and the currents evoked at each potential were averaged. Passive leak and capacitive currents were removed by scaling the average current evoked at −70 mV, and subtracting the result from the average current obtained at each voltage. Current amplitudes were measured at steady-state (i.e., near the end of the voltage step), and the slope conductance was computed as the difference between successive amplitudes, divided by the 10 mV step increment.

[10] = test system: c-Kit Y703; assay: Kinetworks KPSS 2.1 phosphorylation screen, c-Kit Y703; format: cell-based, rat; conditions: 1 μM for 5 minutes
Procedure: as §1

[11] = test system: Thy-1; assay: Immunocytochemistry for Thy-1 in RGC-5 cells; format: cell-based, rat; conditions: differentiated vs undifferentiated cells, twenty-four hours
Procedure: (§3) Immunocytochemistry: Differentiated RGC-5 cells plated on coverslips were fixed with 4% paraformaldehyde (Fisher) in PBS, pH 7.2 for 20 minutes at room temperature, rapidly rinsed with Tris-buffered saline (TBS; 100 mM Tris, pH 7.6, 0.9% NaCl) 3 times for a few seconds each and 2 times for 5 minutes each, and blocked with 5% normal goat serum (BioWhittaker) in TBS for 30 minutes at room temperature. The NMDA-R1 receptor was detected by incubating with purified mouse monoclonal anti-NMDA-R1 antibody (BD Biosciences; San Jose, Calif.; clone 54.1) at 2.5 μg/ml overnight at room temperature, followed by Alexa Fluor™ 594 goat anti-mouse IgG at 10 μg/ml in blocking buffer at room temperature for 90 minutes. Alexa Fluor™ 594 fluorescence was detected with a Texas Red filter set (excitation 560±20 nm, dichroic 595 nm long-pass, emission 630±30 nm). Thy-1 was detected after fixing and blocking by incubating with rabbit anti-Thy-1 polyclonal IgG (Santa Cruz Biotechnology; Santa Cruz, Calif.) at 20 μg/ml overnight at 4° C., followed by Alexa Fluor 488 goat anti-rabbit IgG at 4 μg/ml at room temperature for 60 minutes. Alexa Fluor 488 fluorescence was detected with a FITC filter set (excitation 470±20 nm, dichroic 505 nm long-pass, emission 540±20 nm) filter set. […]

[12] = test system: NMDA-R1; assay: Immunocytochemistry for NMDA-R1 in RGC-5 cells; format: cell-based, rat; conditions: differentiated vs undifferentiated cells, twenty-four hours
Procedure: as §3

[13] = test system: CDK1 T14/Y15; assay: Kinetworks KPSS 2.1 phosphorylation screen, CDK1 T14/Y15; format: cell-based, rat; conditions: 1 μM for 5 minutes
Procedure: as §1

[14] = test system: RGC-5 cells; assay: Cell number by MTT assay; format: cell-based, rat
Procedure: Cell number: Cells were plated in 96 well plates and 3-(4,5-dimethylthiazol-2-yl)-2,5-diphenyltetrazolium bromide (MTT) added immediately to a final concentration of 500 μg/ml. Plates were incubated for 5 hours at 37° C. The media was then replaced with 200 μl of DMSO, which was pipetted up and down to dissolve the formazan crystals, and the plate incubated at 37° C. for 5 minutes. Absorbance was measured at 550 nm on a THERMOmax™ microplate reader (Molecular Devices; Sunnyvale, Calif.). All readings were normalized to a standard curve derived from known numbers of cells.

[15] = test system: MEK1 S298; assay: Kinetworks KPSS 2.1 phosphorylation screen, MEK1 S298; format: cell-based, rat; conditions: 1 μM for 5 minutes
Procedure: as §2

[16] = target: PKA; conditions: read-out: Ki protein kinase A; cited from earlier work
[17] = 1 hr [24 hr], cells with large conductance

C/C=C(/C)C(=O)O[C@H]1C(C)=C2[C@H]([C@@H]1OC(=O)CCCCCCC)[C@@](C)(OC(C)=O)C[C@H](OC(=O)CCC)[C@@]1(O)[C@H]2OC(=O)[C@@]1(C)O [thapsigargin, Thapsigargin]
cell shape ([1]; 10 μM): did cause cells to become more spindle-shaped | morphological evidence of differentiation ([1]; 10 μM): None resulted in morphological evidence of differentiation

Cc1cncc2cccc(S(=O)(=O)N3CCCNC[C@@H]3C)c12 [H-1152]
Ki [2]: 1.6 nM | differentiation-inducing activity in RGC-5 cells [1]: weak differentiation inducers | neurites expressed ([1]; RGC-5 cells, 1 μM): 1.06±0.15 neurites | rounding of the cell soma [1]: did not produce rounding of the cell soma

CN[C@@H]1C[C@H]2O[C@@](C)([C@@H]1OC)n1c3ccccc3c3c4c(c5c6ccccc6n2c5c31)C(=O)NC4 [staurosporine]
decrease in phosphorylation of PKR T451 vs control [3]: 100% | increase in phosphorylation of S722 of FAK vs sham-treated cells [4]: 90% | phosphorylation of ERK1 T202/Y204 vs control [5]: not present in control | Thy-1 level (Western blot) [6]: increased levels | MAP-2 level (Western blot) [7]: increased levels | nuclear condensation (Hoechst 33258) [8]: the same as controls, with finely granular nuclei that were not compacted | conductance of outward currents at +90 mV ([9]; 1 hr [24 hr], untreated 3.1±0.5): 14±5 nS | apparent half-activation voltage (Boltzmann fit) [9, 17]: +48 mV | maximal conductance (Boltzmann fit) [9, 17]: 26 nS | apparent capacitance ([9]; 1 hr [24 hr], untreated 28±2): 31±5 pF | resting potential ([9]; 1 hr [24 hr], untreated −34±0.5): −27±9 mV | resting potential ([9]; 1 hr [48 hr]): −9±6 mV | conductance of outward currents at +90 mV ([9]; 1 hr [48 hr]): 7±3 nS | input resistance ([9]; 1 hr [48 hr], n=4): 322±89 MΩ | apparent capacitance ([9]; 1 hr [48 hr], p<0.05): 44±3 pF | apparent capacitance ([9]; 22 hr [2 hr]): 38±3 | resting potential ([9]; 22 hr [2 hr]): −11±3 | conductance of outward currents at +90 mV ([9]; 22 hr [2 hr]): 5±3 nS | increase in phosphorylation of c-Kit Y703 vs control [10]: 43% | Thy-1 labeling [11]: visibly more intense staining | differentiation-inducing activity in RGC-5 cells [1]: strong differentiation inducer | neurite branching ([1]; 316 nM): minimally branched neurites | differentiation after short exposure ([1]; 1 μM for sixty seconds, then fresh media until twenty-four hours from treatment): definite morphological signs of differentiation | concentrations frequently toxic (necrotic cell body, blebbing and disruption of the neurite tree) ([1]; RGC-5 cells): higher than 1.78 μM | neurites per cell ([1]; RGC-5 cells, 1 μM, average±SEM from 50 cells): 2.94±0.11 neurites per cell | average and total process length ([1]; high (3.16 μM) concentration): average and total process length decreased somewhat | neurite branching ([1]; high (3.16 μM) concentration): neurite branching was greater | average and total neurite outgrowth ([1]; moderate (1 μM) concentration): promoted longer average and total neurite outgrowth | NMDA-R1 labeling [12]: visibly more intense staining | increase in phosphorylation of CDK1 T14/Y15 vs control [13]: 64% | cell number (MTT) ([14]; 1 hour after culture): 7133±266 cells | cell number (MTT) ([14]; twenty-four hours): 10,094±1023 cells | decrease in phosphorylation of MEK1 S298 vs control [15]: 100%

C[C@H](CCC(=O)O)C[C@H](C)C[C@H](C)C(=O)/C=C(\O)[C@H](C)C[C@H](C)C/C=C/[C@@H](C)[C@@H](O)[C@@H](C)[C@@H](O)C[C@@H]1CC[C@@](C)([C@H]2CC[C@@](C)([C@@H](C)O)O2)O1 [ionomycin]
nuclear condensation (Hoechst 33258) [8]: induced nuclear condensation | morphological evidence of differentiation ([1]; 20 μM): None resulted in morphological evidence of differentiation

C=C(C)[C@H]1Cc2c(ccc3c2O[C@@H]2COc4cc(OC)c(OC)cc4[C@@H]2C3=O)O1 [rotenone]
morphological evidence of differentiation ([1]; 10 μM): None resulted in morphological evidence of differentiation

COC(=O)C[C@H](NC(=O)[C@H](C)NC(=O)[C@@H](NC(=O)OCc1ccccc1)C(C)C)C(=O)CF [ZVAD-fmk] (Cbz-Val-Ala-Asp(OMe)-CH2F)
effect of pretreatment on differentiation with SS [1]: did not inhibit differentiation with SS | differentiation of undifferentiated cells by the agent alone ([1]; without staurosporine): did not differentiate

O=S(=O)(NCCNC/C=C/c1ccc(Br)cc1)c1cccc2cnccc12 [H-89]
Ki [16]: 50 nM | differentiation-inducing activity in RGC-5 cells [1]: weak differentiation inducers | neurites expressed ([1]; RGC-5 cells, 56.2 μM): 1.80±0.16 neurites | rounding of the cell soma [1]: did not produce rounding of the cell soma
